Measurements from US20210275511A1, “METHYLPHENIDATE COMPOSITIONS FOR TREATMENT OF ATTENTION DEFICIT HYPERACTIVITY DISORDER” (Ironshore Pharmaceuticals & Development, Inc., priority 2019, published 2021).

Test system: SKAMP scores in children aged 6-12 with attention deficit hyperactivity disorder (ADHD)
Experiment: Population PK/PD model of SKAMP scores (Study HLD200-107, laboratory classroom)
Format: in vivo, human
Settings: FIG. 37
Excerpt: PD data. The clinical data used in this analysis were the SKAMP scores collected in a Phase 3 (HLD200-107 study), multicenter, open-label treatment-optimized, double-blind, randomized, placebo-controlled, forced-withdrawal, parallel group study to evaluate the safety and efficacy of evening dosed HLD200, a novel delayed and extended release formulation (DELEXIS) of methylphenidate hydrochloride, in children aged 6-12 with attention deficit hyperactivity disorder (ADHD) in a laboratory classroom setting.
PK/PD model development. In this study, no MPH samples were collected. Therefore the individual exposure, used in the PK/PD analysis were estimated based on the outcomes of population PK model and on the individual demographic (weight and gender) covariate values.
The model included a parametric description of the trajectories of SKAMP scores for placebo and HLD200 treatments. […]
Examples 10 to 15 relate to PK/PD analysis results. […] In the first step, the individual MPH concentrations were derived using the population PK model previously developed jointly with the individual demographic data and the individual HLD200 dosing history, then the placebo data were modelled, and finally the SKAMP scores were analyzed by fixing the placebo and the PK exposure values previously estimated. […]

Compound: COC(=O)C(c1ccccc1)C1CCCCN1 (stereo not shown) [MPH, methylphenidate]
- Drug concentration required to induce a change from placebo of ~40%: ~15 ng/mL
